Values after ≈ are worked out from the molar mass of the structure shown.
Tested on: Mycobacterium tuberculosis
Assay: Antimycobacterial activity against Mycobacterium tuberculosis isolate 210 at 37 degC after 10 to 11 days by radiometric Bactec 460TB method
Assay type: functional

SMILES	MIC [µg/mL]
NNC(=O)c1ccncc1 [ISONIAZID]	0.05 (≈ 0.365 µM)
CC[C@@H](CO)NCCN[C@@H](CC)CO [ETHAMBUTOL]	2 (≈ 9.79 µM)
CO[C@H]1/C=C/O[C@@]2(C)Oc3c(C)c(O)c4c(O)c(c(/C=N/N5CCN(C)CC5)c(O)c4c3C2=O)NC(=O)/C(C)=C\C=C\[C@H](C)[C@H](O)[C@@H](C)[C@@H](O)[C@@H](C)[C@H](OC(C)=O)[C@@H]1C [RIFAMPIN]	0.05 (≈ 0.0608 µM)

Source: ChEMBL document CHEMBL1275420, “Transfer of embB codon 306 mutations into clinical Mycobacterium tuberculosis strains alters susceptibility to ethambutol, isoniazid, and rifampin” (2008)
